Reference: PubChem BioAssay (NCI)
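Where inhibition never reached the appropriate level, the endpoint shown equals the highest concentration tested. Otherwise, values were interpolated linearly from a five-concentration, 48-hour dose response in 96-well plates. The concentration for full growth arrest is given as TGI.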

Tests used:
Experiment in all cases: inhibition of tumour cell growth, NCI panel, 48 h
SF-295 CNS = test system: SF-295 CNS
HCT-15 colon = test system: HCT-15 colon
SK-OV-3 ovarian = test system: SK-OV-3 ovarian
CCRF-CEM leukemia = test system: CCRF-CEM leukemia
786-0 renal = test system: 786-0 renal
U251 CNS = test system: U251 CNS
OVCAR-3 ovarian = test system: OVCAR-3 ovarian
SNB-19 CNS = test system: SNB-19 CNS
TK-10 renal = test system: TK-10 renal
RPMI-8226 leukemia = test system: RPMI-8226 leukemia
HOP-62 NSCLC = test system: HOP-62 NSCLC
PC-3 prostate = test system: PC-3 prostate
CAKI-1 renal = test system: CAKI-1 renal
EKVX NSCLC = test system: EKVX NSCLC
NCI-H460 lung = test system: NCI-H460 lung
ACHN renal = test system: ACHN renal
OVCAR-4 ovarian = test system: OVCAR-4 ovarian
HT29 colon = test system: HT29 colon
SF-539 CNS = test system: SF-539 CNS
A549 NSCLC = test system: A549 NSCLC
HOP-92 NSCLC = test system: HOP-92 NSCLC
SW-620 colon = test system: SW-620 colon
MALME-3M melanoma = test system: MALME-3M melanoma
HS 578T breast = test system: HS 578T breast
M14 melanoma = test system: M14 melanoma
NCI-H226 lung = test system: NCI-H226 lung
MDA-MB-231 breast = test system: MDA-MB-231 breast
NCI-H23 lung = test system: NCI-H23 lung
SF-268 CNS = test system: SF-268 CNS
UACC-62 melanoma = test system: UACC-62 melanoma
OVCAR-5 ovarian = test system: OVCAR-5 ovarian
SN12C renal = test system: SN12C renal
RXF 393 renal = test system: RXF 393 renal
NCI/ADR-RES ovarian = test system: NCI/ADR-RES ovarian
MDA-N = test system: MDA-N
IGROV1 ovarian = test system: IGROV1 ovarian
HCT-116 colon = test system: HCT-116 colon
K-562 leukemia = test system: K-562 leukemia
T-47D breast = test system: T-47D breast
HCC-2998 colon = test system: HCC-2998 colon
COLO 205 colon = test system: COLO 205 colon
SK-MEL-5 melanoma = test system: SK-MEL-5 melanoma
UACC-257 melanoma = test system: UACC-257 melanoma
BT-549 breast = test system: BT-549 breast
KM12 colon = test system: KM12 colon
LOX IMVI melanoma = test system: LOX IMVI melanoma
MDA-MB-435 = test system: MDA-MB-435
OVCAR-8 ovarian = test system: OVCAR-8 ovarian
UO-31 renal = test system: UO-31 renal
MOLT-4 leukemia = test system: MOLT-4 leukemia
MCF7 breast = test system: MCF7 breast
SK-MEL-2 melanoma = test system: SK-MEL-2 melanoma
NCI-H522 lung = test system: NCI-H522 lung
SR leukemia = test system: SR leukemia
A498 renal = test system: A498 renal
HL-60(TB) leukemia = test system: HL-60(TB) leukemia
SNB-75 CNS = test system: SNB-75 CNS
SK-MEL-28 melanoma = test system: SK-MEL-28 melanoma
DU-145 prostate = test system: DU-145 prostate

In the case of `CCc1n[nH]c(=O)n1NC(=O)CCCC(=O)O`, the TGI (SF-295 CNS) is reported as greater than 100 µM, the TGI (HCT-15 colon) is reported as greater than 100 µM and the TGI (SK-OV-3 ovarian) is reported as greater than 100 µM. For the same compound, the TGI (CCRF-CEM leukemia) was greater than 100 µM, the TGI (786-0 renal) was greater than 100 µM and the TGI (U251 CNS) was greater than 100 µM. It also gave a TGI (OVCAR-3 ovarian) greater than 100 µM, a TGI (SNB-19 CNS) greater than 100 µM and a TGI (TK-10 renal) greater than 100 µM. For the same compound, the TGI (RPMI-8226 leukemia) was greater than 100 µM, the TGI (HOP-62 NSCLC) was greater than 100 µM and the TGI (PC-3 prostate) was greater than 100 µM. For the same compound, the TGI (CAKI-1 renal) was greater than 100 µM, the TGI (EKVX NSCLC) was greater than 100 µM and the TGI (NCI-H460 lung) was greater than 100 µM. The TGI (ACHN renal) was greater than 100 µM, the TGI (OVCAR-4 ovarian) was greater than 100 µM and the TGI (HT29 colon) was greater than 100 µM. For the same compound, the TGI (SF-539 CNS) was greater than 100 µM, the TGI (A549 NSCLC) was greater than 100 µM and the TGI (HOP-92 NSCLC) was greater than 100 µM. The TGI (SW-620 colon) was greater than 100 µM, the TGI (MALME-3M melanoma) was greater than 100 µM and the TGI (HS 578T breast) was greater than 100 µM. For the same compound, the TGI (M14 melanoma) was greater than 100 µM, the TGI (NCI-H226 lung) was greater than 100 µM and the TGI (MDA-MB-231 breast) was greater than 100 µM. For the same compound, the TGI (NCI-H23 lung) was greater than 100 µM, the TGI (SF-268 CNS) was greater than 100 µM and the TGI (UACC-62 melanoma) was greater than 100 µM. The TGI (OVCAR-5 ovarian) was greater than 100 µM, the TGI (SN12C renal) was greater than 100 µM and the TGI (RXF 393 renal) was greater than 100 µM. The TGI (NCI/ADR-RES ovarian) was greater than 100 µM, the TGI (MDA-N) was greater than 100 µM and the TGI (IGROV1 ovarian) was greater than 100 µM. The TGI (HCT-116 colon) was greater than 100 µM, the TGI (K-562 leukemia) was greater than 100 µM and the TGI (T-47D breast) was greater than 100 µM. The TGI (HCC-2998 colon) was greater than 100 µM, the TGI (COLO 205 colon) was greater than 100 µM and the TGI (SK-MEL-5 melanoma) was greater than 100 µM. For the same compound, the TGI (UACC-257 melanoma) was greater than 100 µM, the TGI (BT-549 breast) was greater than 100 µM and the TGI (KM12 colon) was greater than 100 µM. The TGI (LOX IMVI melanoma) was greater than 100 µM, the TGI (MDA-MB-435) was greater than 100 µM and the TGI (OVCAR-8 ovarian) was greater than 100 µM. The TGI (UO-31 renal) was greater than 100 µM, the TGI (MOLT-4 leukemia) was greater than 100 µM and the TGI (MCF7 breast) was greater than 100 µM. For the same compound, the TGI (SK-MEL-2 melanoma) was greater than 100 µM, the TGI (NCI-H522 lung) was greater than 100 µM and the TGI (SR leukemia) was greater than 100 µM. It also gave a TGI (A498 renal) greater than 100 µM.

Work on `Cc1ccc2nc(NC(=O)C(=O)C3C(=O)NC(=S)NC3=O)sc2c1` yielded a TGI (SF-295 CNS) greater than 100 µM, a TGI (HCT-15 colon) greater than 100 µM and a TGI (SK-OV-3 ovarian) greater than 100 µM. For the same compound, the TGI (CCRF-CEM leukemia) was greater than 100 µM, the TGI (786-0 renal) was greater than 100 µM and the TGI (U251 CNS) was greater than 100 µM. It also gave a TGI (OVCAR-3 ovarian) greater than 100 µM, a TGI (SNB-19 CNS) greater than 100 µM and a TGI (HL-60(TB) leukemia) greater than 100 µM. For the same compound, the TGI (TK-10 renal) was greater than 100 µM, the TGI (RPMI-8226 leukemia) was greater than 100 µM and the TGI (HOP-62 NSCLC) was greater than 100 µM. For the same compound, the TGI (PC-3 prostate) was greater than 100 µM, the TGI (CAKI-1 renal) was greater than 100 µM and the TGI (EKVX NSCLC) was greater than 100 µM. For the same compound, the TGI (NCI-H460 lung) was greater than 100 µM, the TGI (ACHN renal) was greater than 100 µM and the TGI (OVCAR-4 ovarian) was greater than 100 µM. It also gave a TGI (HT29 colon) greater than 100 µM, a TGI (SNB-75 CNS) greater than 100 µM and a TGI (SF-539 CNS) greater than 100 µM. It also gave a TGI (A549 NSCLC) greater than 100 µM, a TGI (HOP-92 NSCLC) greater than 100 µM and a TGI (SW-620 colon) greater than 100 µM. The TGI (MALME-3M melanoma) was greater than 100 µM, the TGI (HS 578T breast) was greater than 100 µM and the TGI (M14 melanoma) was greater than 100 µM. For the same compound, the TGI (NCI-H226 lung) was greater than 100 µM, the TGI (MDA-MB-231 breast) was greater than 100 µM and the TGI (NCI-H23 lung) was greater than 100 µM. It also gave a TGI (SF-268 CNS) greater than 100 µM, a TGI (UACC-62 melanoma) greater than 100 µM and a TGI (OVCAR-5 ovarian) greater than 100 µM. For the same compound, the TGI (SN12C renal) was greater than 100 µM, the TGI (RXF 393 renal) was greater than 100 µM and the TGI (NCI/ADR-RES ovarian) was greater than 100 µM. The TGI (SK-MEL-28 melanoma) was greater than 100 µM, the TGI (MDA-N) was greater than 100 µM and the TGI (IGROV1 ovarian) was greater than 100 µM. For the same compound, the TGI (HCT-116 colon) was greater than 100 µM, the TGI (T-47D breast) was greater than 100 µM and the TGI (HCC-2998 colon) was greater than 100 µM. For the same compound, the TGI (SK-MEL-5 melanoma) was greater than 100 µM, the TGI (UACC-257 melanoma) was greater than 100 µM and the TGI (BT-549 breast) was greater than 100 µM. It also gave a TGI (KM12 colon) greater than 100 µM, a TGI (LOX IMVI melanoma) greater than 100 µM and a TGI (MDA-MB-435) greater than 100 µM. It also gave a TGI (OVCAR-8 ovarian) greater than 100 µM, a TGI (UO-31 renal) greater than 100 µM and a TGI (MOLT-4 leukemia) greater than 100 µM. It also gave a TGI (MCF7 breast) greater than 100 µM, a TGI (SK-MEL-2 melanoma) greater than 100 µM and a TGI (NCI-H522 lung) greater than 100 µM. It also gave a TGI (A498 renal) greater than 100 µM.

For `CCCc1cc(=O)oc2c3c(c4c(c12)OC(C)(C)CC4)O[C@H](C)[C@@H](C)[C@H]3O`, the TGI (SF-295 CNS) was 32 µM, the TGI (HCT-15 colon) was 27.5 µM and the TGI (SK-OV-3 ovarian) was 31.7 µM. The TGI (CCRF-CEM leukemia) was 33.8 µM, the TGI (DU-145 prostate) was 29.8 µM and the TGI (786-0 renal) was 29.8 µM. It also gave a TGI (U251 CNS) of 32.2 µM, a TGI (OVCAR-3 ovarian) of 37.7 µM and a TGI (SNB-19 CNS) of 32.2 µM. For the same compound, the TGI (RPMI-8226 leukemia) was 18.8 µM, the TGI (HOP-62 NSCLC) was 35.3 µM and the TGI (PC-3 prostate) was 23.5 µM. It also gave a TGI (CAKI-1 renal) of 35.1 µM, a TGI (EKVX NSCLC) of 26.2 µM and a TGI (NCI-H460 lung) of 41.7 µM. It also gave a TGI (OVCAR-4 ovarian) of 28.6 µM, a TGI (HT29 colon) of 22.7 µM and a TGI (SNB-75 CNS) of 31.3 µM. The TGI (SF-539 CNS) was 41.9 µM, the TGI (A549 NSCLC) was 64 µM and the TGI (HOP-92 NSCLC) was 33.3 µM. The TGI (SW-620 colon) was 35.8 µM, the TGI (MALME-3M melanoma) was 37.9 µM and the TGI (HS 578T breast) was 50.2 µM. For the same compound, the TGI (M14 melanoma) was 37.2 µM, the TGI (NCI-H226 lung) was 34.2 µM and the TGI (MDA-MB-231 breast) was 30.9 µM. For the same compound, the TGI (NCI-H23 lung) was 30.3 µM, the TGI (SF-268 CNS) was 35.1 µM and the TGI (UACC-62 melanoma) was 27.4 µM. For the same compound, the TGI (OVCAR-5 ovarian) was 31.6 µM, the TGI (SN12C renal) was 34.3 µM and the TGI (RXF 393 renal) was 47.3 µM. For the same compound, the TGI (NCI/ADR-RES ovarian) was 33.1 µM, the TGI (MDA-N) was 23.7 µM and the TGI (IGROV1 ovarian) was 30.8 µM. The TGI (HCT-116 colon) was 29.4 µM, the TGI (K-562 leukemia) was 21.1 µM and the TGI (T-47D breast) was 29.8 µM. It also gave a TGI (HCC-2998 colon) of 31.8 µM, a TGI (COLO 205 colon) of 33.6 µM and a TGI (SK-MEL-5 melanoma) of 29.3 µM. It also gave a TGI (UACC-257 melanoma) of 28.1 µM, a TGI (BT-549 breast) of 26.6 µM and a TGI (KM12 colon) of 28.7 µM. It also gave a TGI (LOX IMVI melanoma) of 31.7 µM, a TGI (MDA-MB-435) of 25.7 µM and a TGI (OVCAR-8 ovarian) of 32.6 µM. For the same compound, the TGI (UO-31 renal) was 26.7 µM, the TGI (MOLT-4 leukemia) was 27.8 µM and the TGI (MCF7 breast) was 43.2 µM. The TGI (SK-MEL-2 melanoma) was 49.1 µM.
